Assay results from PubChem BioAssay (NCI).
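Growth conditions: 96-well plates. Treatment: test compound, 48 hours, 5 concentrations. Analysis: linear interpolation between bracketing concentrations; unreached endpoints set to highest concentration. The concentration for full growth arrest is given as TGI.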

Legend:
Assay in all cases: inhibition of tumour cell growth, NCI panel, 48 h
[1] = tested on: 786-0 renal
[2] = tested on: HCT-15 colon
[3] = tested on: NCI-H522 lung
[4] = tested on: OVCAR-5 ovarian
[5] = tested on: SF-268 CNS
[6] = tested on: SK-MEL-2 melanoma
[7] = tested on: SK-MEL-28 melanoma
[8] = tested on: SN12C renal
[9] = tested on: SNB-75 CNS
[10] = tested on: SW-620 colon
[11] = tested on: T-47D breast
[12] = tested on: TK-10 renal
[13] = tested on: UACC-62 melanoma

SMILES | TGI [1] [µM] | TGI [2] [µM] | TGI [3] [µM] | TGI [4] [µM] | TGI [5] [µM] | TGI [6] [µM] | TGI [7] [µM] | TGI [8] [µM] | TGI [9] [µM] | TGI [10] [µM] | TGI [11] [µM] | TGI [12] [µM] | TGI [13] [µM]
Cc1ccccc1OC(C)C(=O)NN1C(=O)CSC1c1ccc(Cl)cc1 (stereo not given) | 34.8 | > 100 | > 29.4 | > 100 | > 67.4 | > 100 | > 100 | 35.3 | > 100 | > 81.2 | > 100 | > 100 | > 100
CCOC(=O)c1nnsc1N/N=C\c1ccc([N+](=O)[O-])cc1 | > 100 | > 100 | > 100 | > 100 | > 100 | > 100 | > 100 | > 100 | > 100 | > 100 | > 100 | > 100 | > 100
COC(=O)C1Cc2cc3c(cc2C1=O)CCCC3 (stereo not given) | > 100 | > 100 | > 100 | > 100 | > 100 | > 100 | > 100 | > 100 | > 100 | > 100 | > 100 | > 100 | > 100
Cc1ccc(NC=O)c(-c2c(N)[nH]c(=S)[nH]c2=O)c1 | > 100 | > 100 | > 100 | > 100 | > 100 | > 100 | – | > 100 | > 100 | > 100 | > 100 | > 100 | > 100
COc1ccc(-n2[nH]nc(C(N)=O)c2=O)cc1 | > 100 | > 100 | > 100 | > 100 | > 100 | > 100 | > 100 | > 100 | > 100 | > 100 | > 100 | – | > 100
CC(C)(C)OC(=O)N(CCCCNC(=O)OCc1ccccc1)CCCNC(=O)OCc1ccccc1 | > 100 | > 100 | 19.4 | > 100 | > 100 | > 100 | > 100 | > 100 | > 100 | > 100 | > 100 | > 100 | > 100
CC(C)(C)OC(=O)NC1CC2(C=C(Br)C(=O)C(Br)=C2)OC1=O (stereo not given) | 7.5 | 23 | 3.92 | 35.1 | 32.2 | 32 | 37.9 | 18.5 | 36.7 | 5.79 | 6.39 | 12.2 | 32.4
O=C(c1nc2ccc([N+](=O)[O-])cc2[nH]c1=O)C(O)c1ccc2c(c1)OCO2 (stereo not given) | > 100 | > 100 | > 100 | > 100 | > 100 | > 100 | > 100 | > 100 | > 100 | > 100 | > 100 | > 100 | > 100
Cc1cnc2sn(-c3ccc([N+](=O)[O-])cc3)c(=O)c2c1 | > 100 | > 100 | > 100 | > 100 | > 100 | > 100 | > 100 | > 100 | 51.6 | > 100 | > 100 | > 100 | > 100
